From US20080039328A1, “Post Harvest Control of Genetically Modified Crop Growth Employing D-Amino Acid Compounds” (BASF PLANT SCIENCE GMBH, priority 2004, published 2008) come the findings set out here.

“Also recorded” adds a separate entry of the source.

The test system of test [1] is wild-type Arabidopsis thaliana. Kind of test: Growth of wild-type A. thaliana plantlets on medium with D-amino acids. Type of test: in vivo. To be noted: for Growth of wild-type plants (FIG. 4): various concentrations in half-strength MS, 10 d after germination; for Effect on plant growth (FIG. 3): 3 mM in half-concentrated Murashige-Skoog medium, wild type plantlets; for Growth of wild-type plants on selection media: immediately after the cotyledons had emerged. How it is done:
Wild type Arabidopsis thaliana plantlets were grown on half-concentrated Murashige-Skoog medium (0.5% (wt/vol) sucrose, 0.8% (wt/vol) agar) supplemented with the indicated D-amino acid at either 3 mM (Panel A) or 30 mM (Panel B).
(§1) FIG. 4 D-amino acid dose responses of dao1 transgenic and wild-type A. thaliana. (a-d) Growth of dao1 transgenic line 3:7 (white), 10:7 (light gray), 13:4 (gray) and wild-type (black) plants, in fresh weight per plant, on media containing various concentrations of D-serine, D-alanine, D-isoleucine and D-valine in half-strength MS with 0.5% (wt/vol) sucrose and 0.8% (wt/vol) agar. Different concentration ranges were used for different ID-amino acids. The plants were grown for 10 d after germination under 16 h photoperiods at 24° C.; n=10±s.e.m., except for plants grown on D-isoleucine, where smaller Petri dishes were used, (n=6±s.e.m.).
(§2) T1 seeds of transgenic Arabidopsis plants were surface-sterilized and sown in Petri plates that were sealed with gas-permeable tape. The growth medium was half strength MS19 with 0.5% (wt/vol) sucrose and 0.8% (wt/vol) agar, plus 3 mM D-alanine, 3 mM D-serine or 50 μg/ml kanamycin as the selective agent. Plants were grown for 5 d after germination with a 16 h photoperiod at 24° C. To evaluate the selection efficiency on different substrates, 2,074, 1,914 and 1,810 T1 seeds were sown on D-alanine-, D-serine- and kanamycin-selective plates, respectively, and the number of surviving seedlings was counted (44, 32 and 43, respectively).

The next test has as its target T1, DAAO (Rhodotorula toruloides, UniProt P80324).
T1 construct: expressed in transfected cells; host or cells: Arabidopsis thaliana (Col-0), dao1 transgenic line 10:7, transformed with pPCV702:dao1 (CaMV 35S); crude soluble protein extract
T1 sequence (P80324 25-368): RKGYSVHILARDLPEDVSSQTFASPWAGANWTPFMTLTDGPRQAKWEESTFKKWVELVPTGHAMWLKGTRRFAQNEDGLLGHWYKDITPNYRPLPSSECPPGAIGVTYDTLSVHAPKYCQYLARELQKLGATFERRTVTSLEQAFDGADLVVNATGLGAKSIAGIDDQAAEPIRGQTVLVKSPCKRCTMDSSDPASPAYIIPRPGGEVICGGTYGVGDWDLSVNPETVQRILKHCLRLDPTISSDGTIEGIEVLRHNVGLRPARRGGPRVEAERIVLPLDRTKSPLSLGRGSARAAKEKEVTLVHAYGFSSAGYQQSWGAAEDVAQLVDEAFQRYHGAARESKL
Kind of test: DAAO incubation of cell-free plant extracts, keto acid production by HPLC. As to conditions: cell-free extracts from dao1 transgenic line 10:7. The format is biochemical, Rhodotorula gracilis. The method, then:
Soluble proteins were extracted by shaking 0.1 g samples of plant material that had been finely pulverized in a 1.5 ml Eppendorf tube in 1 ml of 0.1 M potassium phosphate buffer, pH 8. DAAO activity was then assayed as follows. Reaction mixtures were prepared containing 2,120 μl of 0.1 M potassium phosphate buffer, pH 8, 80 μl of crude protein extract and 100 μl of 0.3 M D-alanine. The samples were incubated for 2 h at 30° C. The enzyme activity was then assessed, by measuring the increase in absorbance at 220 nm (E=1.090 M^−1 cm^−1) associated with the conversion of D-alanine to pyruvate, after transferring the test tubes to boiling water for […] to stop the reaction. In control reactions, D-alanine was added immediately before boiling. One unit of DAAO activity is defined as the turnover of one micromole of substrate per minute, and activity was expressed per gram plant biomass (fresh weight). The breakdown of D-isoleucine and D-valine in DAAO incubations, and the associated production of 3-methyl-2-oxopentanoate and 3-methyl-2-oxobutanoate, were analyzed by high-performance liquid chromatography. In other respects the reactions were carried out as described above.
Presumably endogenous transaminase may be specific for the L-enantiomer, so the corresponding D-enantiomer is not metabolized in wildtype plants, but only in plants expressing DAAO. […]

Test [2] concerns dao1 transgenic A. thaliana. Kind of test: Growth of dao1 (DAAO) transgenic A. thaliana on medium with D-amino acids. Type of test: in vivo, Arabidopsis thaliana. As to conditions: for Effect on the transgenic plants: concentration of 30 mM; for Development of transgenic plants under selection conditions: in vivo. How it is done:
as §1, §2
(§3) The T-DNA contained both 35S:dao1 and pNos:nptII, allowing D-amino acid and kanamycin selection to be compared in the same lot of seeds.
Therefore, plants containing the construct were tested as described above on two sets of media, one containing D-isoleucine and the other containing D-valine at various concentrations, to assess whether DAAO could also be used as a counter-selection marker. Unambiguous counter-selection selection was achieved when seeds were sown on either D-isoleucine or D-valine at concentrations greater than 10 mM (FIG. 4 c,d).

Another test deals with A. thaliana. The test is described as follows: Growth and toxicity tests on A. thaliana (genotype not stated). Type of test: in vivo. To be noted: for Effect on growth of A. thaliana: in vivo. From the text: (§4) Presumably endogenous transaminase may be specific for the L-enantiomer, so the corresponding D-enantiomer is not metabolized in wildtype plants, but only in plants expressing DAAO. […] The toxicity of some D-amino acids on organisms is not well understood, and has only occasionally been studied in plants (Gamburg K Z & Rekoslavskaya N I (1991) Fiziologiya Rastenii 38, 1236-1246). Apart from A. thaliana, we have also tested the susceptibility of other plant species to D-serine, including poplar, tobacco, barley, maize, tomato and spruce. We found all tested species susceptible to D-serine at concentrations similar to those shown to be toxic for A. thaliana. A proposed mechanism for D-serine toxicity in bacteria is competitive inhibition of […] coupling to pantoic acid, thus inhibiting formation of pantothenic acid (Cosloy S D & McFall E (1973) J. Bacteriol. 114, 685-694). […] A second putative cause of D-amino acid toxicity is through competitive binding to tRNA. […] Genes similar to that encoding bacterial deacylase have also been identified. in A. thaliana (Soutourina J et al. (1996) J. Biol. Chem. 274, 19109-19114), corroborating the possibility that the mode of toxic action of D-amino acids might be through competitive binding to tRNA.

Test [3] concerns T1 seeds of transgenic Arabidopsis plants. Kind of test: Selection of T1 seeds on selective media. The format is in vivo. To be noted: for Number of surviving seedlings: 2,074, 1,914 and 1,810 T1 seeds sown on D-alanine (3 mM), D-serine (3 mM) and kanamycin (50 μg/ml) plates, 5 d after germination; for Transformation frequencies found on the selective media: kanamycin 50 μg/ml, D-alanine 3 mM, D-serine 3 mM. The method, then:
as §2, §3

In another test the test system is wild-type seedlings. Kind of test: Sprayed (foliar) application on wild-type seedlings. Type of test: in vivo, A. thaliana. To be noted: one-week-old seedlings, sprayed on three consecutive days, 50 mM. An excerpt: (§5) Selection of seedlings on media containing D-alanine or D-serine was very rapid compared to selection on kanamycin. […] Therefore, transformants could be distinguished from non-transformed plants directly after germination. The difference between wild-type and transgenic plants after D-amino acid selection was unambiguous, with no intermediate phenotypes. In contrast, intermediate phenotypes are common when kanamycin resistance is used as a selection marker. […] Transgenic seedlings were resistant to foliar application of D-alanine or D-serine, so selection on soil was possible.

Another test concerns Transgenic seedlings. The test is described as follows: Foliar application on transgenic seedlings. More on the design: species or system A. thaliana. To be noted: in vivo.
From the text: as §5

In the next test the test system is tobacco. Kind of test: Susceptibility of other plant species to D-serine. Type of test: in vivo. As to conditions: concentrations similar to those toxic for A. thaliana.
From the text: as §4

The next test relates to tomato. The test is described as follows: Susceptibility of other plant species to D-serine. Type of test: in vivo. To be noted: concentrations similar to those toxic for A. thaliana.
From the text: as §4

The subject of the next test is maize. Kind of test: Susceptibility of other plant species to D-serine. Type of test: in vivo. To be noted: concentrations similar to those toxic for A. thaliana.
From the text: as §4

The subject of a further test is spruce. Kind of test: Susceptibility of other plant species to D-serine. Type of test: in vivo. As to conditions: concentrations similar to those toxic for A. thaliana.
From the text: as §4

A further test relates to barley. Kind of test: Susceptibility of other plant species to D-serine. Type of test: in vivo. To be noted: concentrations similar to those toxic for A. thaliana.
From the text: as §4

A further test relates to poplar. The test is described as follows: Susceptibility of other plant species to D-serine. Type of test: in vivo. To be noted: concentrations similar to those toxic for A. thaliana.
From the text: as §4

For the next test, the system named is DAAO transgenic plants. Kind of test: Germination of DAAO transgenic plants on D-Asn. The format is in vivo. As to conditions: 30 mM. From the text:
The D-amino acid oxidase of the invention may be expressed in the cytosol, peroxisome, or other intracellular compartment of the plant cell. Compartmentalisation of the D-amino acid metabolising polypeptide may be achieved by fusing the nucleic acid sequence encoding the DAAO polypeptide to a sequence encoding a transit peptide to generate a fusion protein. Gene products expressed without such transit peptides generally accumulate in the cytosol. The localization of expressed DAAO in the peroxisome produces H2O2 that can be metabolised by the H2O2 degrading enzyme catalase. Higher levels of D-amino acids may therefore be required to produce damaging levels of H2O2. Expression of DAAO in the cytosol, where levels of catalase activity are lower, reduces the amount of D-amino acid required to produce damaging levels H2O2. Expression of DAAO in the cytosol may be achieved by removing peroxisome targeting signals or transit peptides from the encoding nucleic acid sequence. For example, the dao1 gene (EC: 1.4.3.3: GenBank Acc.-No.: U60066) from the yeast Rhodotorula gracilis (Rhodosporidium toruloides) was cloned as described (WO 03/060133). The last nine nucleotides encode the signal peptide SKL, which guides the protein to the peroxisome sub-cellular organelle.

`CC[C@H](C)[C@H](N)C(=O)O` [L-isoleucine]: in test [1] (in vivo), the “Effects on wildtype plants” value is given as “negative effects”.

For `CC(C)[C@@H](N)C(=O)O` [D-valine], at DAAO, the “Increase in production of 3-methyl-2-oxobutanoate compared to extracts of wild-type plants” value is 7 fold. Besides, the “Growth of plants expressing DAAO (FIG. 4)” value in [2] (various concentrations in half-strength MS, 10 d after germination) is given as “strong negative influence on the growth; also recorded: inhibit growth”. For the same compound, the “Effect on wild-type plants at higher concentrations (FIG. 4d)” value in [1] (higher concentrations) is on record as “moderately negative effect”. In test [1], the “Growth of wild-type plants (FIG. 4)” value is on record as “not toxic; also recorded: minor effects; also recorded: not the wild-type plants”.

Consider `CC(C)C(=O)C(=O)O` [3-methyl-2-oxobutanoate, 3-methyl-2-oxobutanoate], for which, in the test on A. thaliana, the “Effect on growth of A. thaliana” value is given as “impaired growth”.

`NC[C@H]1O[C@H](O[C@H]2[C@H](O)[C@@H](O[C@H]3O[C@H](CO)[C@@H](O)[C@H](N)[C@H]3O)[C@H](N)C[C@@H]2N)[C@H](O)[C@@H](O)[C@@H]1O` [kanamycin]: in test [3], the “Number of surviving seedlings” value is 43 and the “Transformation frequencies found on the selective media” value was determined as 2.37%.

Turning to `N[C@H](CO)C(=O)O` [D-serine], the “Effect of sprayed application on wild-type seedlings” value in the test on wild-type seedlings is reported as “effectively killed”. In addition, in [3], the “Number of surviving seedlings” value was found to be 32 and the “Transformation frequencies found on the selective media” value was determined as 1.67%. In test [3] (in vivo), the “Concentration at which efficient selection was achieved (FIG. 4a)” value is on record as “lower than 1 mM”. The “Response of transgenic seedlings to foliar application” value in the test with Transgenic seedlings was “resistant”. The Susceptibility of tobacco result with tobacco is given as “susceptible”. The Susceptibility of tomato result in the test with tomato is “susceptible”. Besides, in the test on maize, the Susceptibility of maize result is “susceptible”. For the same compound, the Susceptibility of spruce entry in the test with spruce is on record as “susceptible”. For the same compound, in the test with barley, the Susceptibility of barley result is given as “susceptible”. The Susceptibility of poplar entry with poplar is listed as “susceptible”. Moreover, the “Effect on growth of the transgenic plants” value in [2] (3 mM) is reported as “slightly inhibited the growth”. For the same compound, in [2], the “Effect on the transgenic plants” value is on record as “significant growth inhibition” and the “Development of transgenic plants under selection conditions” value is given as “developed normally”. Also, the “Mitigation of toxicity in A. thaliana by pantothenic acid or a-alanine” value in the test on A. thaliana (pantothenic acid or a-alanine provided) was “could not be mitigated”. Besides, in test [1], the “Effect on plant growth (FIG. 3)” value is on record as “severe phytotoxic effects”, the “Growth of wild-type plants on selection media” value is reported as “inhibited growth” and the “Growth of wild-type plants (FIG. 4)” value is recorded as “inhibited even at quite low concentrations”.

Regarding `NC(=O)C[C@@H](N)C(=O)O` [D-Asn, D-asparagine], in the test with DAAO transgenic plants, the “Inhibition of germination of DAAO transgenic plants (cytosolic and peroxisomal constructs)” value is reported as “inhibited significantly more than the wild-type”.

As for `CCC(C)C(=O)C(=O)O` (stereo not drawn) [3-methyl-2-oxopentanoate], the “Effect on growth of A. thaliana” value in the test on A. thaliana is reported as “impaired growth”.

`C[C@@H](N)C(=O)O` [D-alanine]: the “Effect of sprayed application on wild-type seedlings” value in the test with wild-type seedlings is listed as “effectively killed”. In addition, in [3], the “Number of surviving seedlings” value was 44 and the “Transformation frequencies found on the selective media” value was found to be 2.12%. For the same compound, the “Response of transgenic seedlings to foliar application” value with Transgenic seedlings is listed as “resistant”. In test [2], the “Effect on the transgenic plants” value is “no negative effect” and the “Development of transgenic plants under selection conditions” value is “developed normally”. For the same compound, the “Effect on transgenic plantlets comprising DAAO gene (FIG. 2)” value in test [2] (treated with 30 mM) is recorded as “no severe damage”. Further, in [1], the “Effect on plant growth (FIG. 3)” value is on record as “severe phytotoxic effects”, the “Growth of wild-type plants on selection media” value is on record as “inhibited growth” and the “Growth of wild-type plants (FIG. 4)” value is on record as “inhibited even at quite low concentrations”. Besides, in test [1] (treated with 30 mM), the “Effect on wild-type plantlets (FIG. 2)” value is “toxic effect”.
